Test results published in ChEMBL document CHEMBL1201862, “PubChem BioAssay data set” (2004).
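Cells were grown in 96-well plates and exposed to each compound for 48 hours at five concentrations; endpoints were interpolated linearly between bracketing concentrations, or set to the highest concentration if not reached. GI50: concentration for 50% inhibition of growth.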 Active and inactive are the calls of the source. No stated cut-off is given here; in the data, active = GI50 up to about 1.1 µM and inactive = higher.

Key:
Assay in all cases: DTP human tumour cell line panel, 48 h
EKVX = tested on: EKVX
Malme-3M = tested on: Malme-3M
U-251 = tested on: U-251
KM-20L2 = tested on: KM-20L2
SK-OV-3 = tested on: SK-OV-3
UACC-257 = tested on: UACC-257
DMS-273 = tested on: DMS-273
RXF 393 = tested on: RXF 393
RXF 631 = tested on: RXF 631
COLO 205 = tested on: COLO 205
HOP-92 = tested on: HOP-92
ACHN = tested on: ACHN
SR = tested on: SR
LOX IMVI = tested on: LOX IMVI
OVCAR-3 = tested on: OVCAR-3
IGROV-1 = tested on: IGROV-1
NCI-H23 = tested on: NCI-H23
RPMI-8226 = tested on: RPMI-8226
SW-620 = tested on: SW-620
TK-10 = tested on: TK-10
SF-268 = tested on: SF-268
M19-MEL = tested on: M19-MEL
LXFL 529 = tested on: LXFL 529
MOLT-4 = tested on: MOLT-4
SK-MEL-5 = tested on: SK-MEL-5
SNB-19 = tested on: SNB-19
OVCAR-8 = tested on: OVCAR-8
K562 = tested on: K562
HCC 2998 = tested on: HCC 2998
HCT-116 = tested on: HCT-116
A549 = tested on: A549
HOP-18 = tested on: HOP-18
HL-60 = tested on: HL-60
XF498 = tested on: XF498
OVCAR-5 = tested on: OVCAR-5
DLD-1 = tested on: DLD-1
SF-539 = tested on: SF-539
NCI-H522 = tested on: NCI-H522
HCT-15 = tested on: HCT-15
M14 = tested on: M14
UACC-62 = tested on: UACC-62
OVCAR-4 = tested on: OVCAR-4
SF-295 = tested on: SF-295
NCI-H226 = tested on: NCI-H226
SNB-75 = tested on: SNB-75
KM12 = tested on: KM12
SN12C = tested on: SN12C
786-0 = tested on: 786-0
NCI-H460 = tested on: NCI-H460
SK-MEL-28 = tested on: SK-MEL-28
DMS-114 = tested on: DMS-114
SK-MEL-2 = tested on: SK-MEL-2
SNB-78 = tested on: SNB-78
HT-29 = tested on: HT-29
CAKI-1 = tested on: CAKI-1
UO-31 = tested on: UO-31
HOP-62 = tested on: HOP-62
CCRF-CEM = tested on: CCRF-CEM

Cn1c(=O)c(C(c2ccccc2)c2c(O)c3ccccc3n(C)c2=O)c(O)c2ccccc21
GI50 (EKVX): > 100 µM (inactive) | GI50 (Malme-3M): > 100 µM (inactive) | GI50 (U-251): > 100 µM (inactive) | GI50 (KM-20L2): > 100 µM (inactive) | GI50 (SK-OV-3): > 100 µM (inactive) | GI50 (UACC-257): > 100 µM (inactive) | GI50 (DMS-273): > 100 µM (inactive) | GI50 (RXF 393): > 100 µM (inactive) | GI50 (RXF 631): > 100 µM (inactive) | GI50 (COLO 205): > 100 µM (inactive) | GI50 (HOP-92): > 100 µM (inactive) | GI50 (ACHN): > 100 µM (inactive) | GI50 (SR): 45.5 µM (inactive) | GI50 (LOX IMVI): > 100 µM (inactive) | GI50 (OVCAR-3): > 100 µM (inactive) | GI50 (IGROV-1): > 100 µM (inactive) | GI50 (NCI-H23): > 100 µM (inactive) | GI50 (RPMI-8226): > 100 µM (inactive) | GI50 (SW-620): > 100 µM (inactive) | GI50 (TK-10): > 100 µM (inactive) | GI50 (SF-268): > 100 µM (inactive) | GI50 (M19-MEL): > 100 µM (inactive) | GI50 (LXFL 529): > 100 µM (inactive) | GI50 (MOLT-4): 45.3 µM (inactive) | GI50 (SK-MEL-5): > 100 µM (inactive) | GI50 (SNB-19): > 100 µM (inactive) | GI50 (OVCAR-8): > 100 µM (inactive) | GI50 (K562): > 100 µM (inactive) | GI50 (HCC 2998): > 100 µM (inactive) | GI50 (HCT-116): > 100 µM (inactive) | GI50 (A549): > 100 µM (inactive) | GI50 (HOP-18): > 100 µM (inactive) | GI50 (HL-60): 32.4 µM (inactive) | GI50 (XF498): > 100 µM (inactive) | GI50 (OVCAR-5): 23.2 µM (inactive) | GI50 (DLD-1): 88.7 µM (inactive) | GI50 (SF-539): > 100 µM (inactive) | GI50 (NCI-H522): > 100 µM (inactive) | GI50 (HCT-15): > 10 µM | GI50 (M14): > 100 µM (inactive) | GI50 (UACC-62): > 100 µM (inactive) | GI50 (OVCAR-4): 53.6 µM (inactive) | GI50 (SF-295): > 100 µM (inactive) | GI50 (NCI-H226): 0.0283 µM (active) | GI50 (SNB-75): 38.1 µM (inactive) | GI50 (KM12): > 100 µM (inactive) | GI50 (SN12C): > 100 µM (inactive) | GI50 (786-0): > 100 µM (inactive) | GI50 (NCI-H460): > 100 µM (inactive) | GI50 (SK-MEL-28): > 100 µM (inactive) | GI50 (DMS-114): > 100 µM (inactive) | GI50 (SK-MEL-2): > 100 µM (inactive) | GI50 (SNB-78): > 100 µM (inactive) | GI50 (HT-29): > 100 µM (inactive) | GI50 (CAKI-1): > 100 µM (inactive) | GI50 (UO-31): > 100 µM (inactive)

O=C(O)C[C@H]1CCCCC12CCOC2=O (some centres undefined)
GI50 (EKVX): > 100 µM (inactive) | GI50 (U-251): > 100 µM (inactive) | GI50 (KM-20L2): > 100 µM (inactive) | GI50 (SK-OV-3): > 100 µM (inactive) | GI50 (UACC-257): > 100 µM (inactive) | GI50 (DMS-273): > 100 µM (inactive) | GI50 (HOP-62): > 100 µM (inactive) | GI50 (RXF 393): > 100 µM (inactive) | GI50 (RXF 631): > 100 µM (inactive) | GI50 (COLO 205): > 100 µM (inactive) | GI50 (HOP-92): > 100 µM (inactive) | GI50 (ACHN): > 100 µM (inactive) | GI50 (SR): > 100 µM (inactive) | GI50 (LOX IMVI): > 100 µM (inactive) | GI50 (OVCAR-3): > 100 µM (inactive) | GI50 (IGROV-1): > 100 µM (inactive) | GI50 (NCI-H23): > 100 µM (inactive) | GI50 (RPMI-8226): > 100 µM (inactive) | GI50 (SW-620): > 100 µM (inactive) | GI50 (TK-10): > 100 µM (inactive) | GI50 (SF-268): > 100 µM (inactive) | GI50 (M19-MEL): > 100 µM (inactive) | GI50 (LXFL 529): > 100 µM (inactive) | GI50 (MOLT-4): > 100 µM (inactive) | GI50 (SK-MEL-5): > 100 µM (inactive) | GI50 (SNB-19): > 100 µM (inactive) | GI50 (OVCAR-8): > 100 µM (inactive) | GI50 (K562): > 100 µM (inactive) | GI50 (HCC 2998): > 100 µM (inactive) | GI50 (HCT-116): > 100 µM (inactive) | GI50 (A549): > 100 µM (inactive) | GI50 (HOP-18): > 100 µM (inactive) | GI50 (CCRF-CEM): > 100 µM (inactive) | GI50 (HL-60): > 100 µM (inactive) | GI50 (XF498): > 100 µM (inactive) | GI50 (OVCAR-5): > 100 µM (inactive) | GI50 (DLD-1): > 100 µM (inactive) | GI50 (SF-539): > 100 µM (inactive) | GI50 (NCI-H522): > 100 µM (inactive) | GI50 (M14): > 100 µM (inactive) | GI50 (UACC-62): > 100 µM (inactive) | GI50 (OVCAR-4): > 100 µM (inactive) | GI50 (SF-295): > 100 µM (inactive) | GI50 (NCI-H226): > 100 µM (inactive) | GI50 (SNB-75): > 100 µM (inactive) | GI50 (KM12): > 100 µM (inactive) | GI50 (SN12C): > 100 µM (inactive) | GI50 (786-0): > 100 µM (inactive) | GI50 (NCI-H460): > 100 µM (inactive) | GI50 (SK-MEL-28): > 100 µM (inactive) | GI50 (DMS-114): > 100 µM (inactive) | GI50 (SK-MEL-2): 87.5 µM (inactive) | GI50 (SNB-78): > 100 µM (inactive) | GI50 (HT-29): > 100 µM (inactive) | GI50 (CAKI-1): > 100 µM (inactive) | GI50 (UO-31): > 100 µM (inactive)

CN(C)c1ncnc2c1Cc1ccccc1C(=O)N2C
GI50 (EKVX): > 100 µM (inactive) | GI50 (Malme-3M): > 100 µM (inactive) | GI50 (U-251): > 100 µM (inactive) | GI50 (KM-20L2): > 100 µM (inactive) | GI50 (SK-OV-3): > 100 µM (inactive) | GI50 (UACC-257): > 100 µM (inactive) | GI50 (DMS-273): > 100 µM (inactive) | GI50 (HOP-62): > 100 µM (inactive) | GI50 (RXF 393): > 100 µM (inactive) | GI50 (RXF 631): > 100 µM (inactive) | GI50 (COLO 205): > 100 µM (inactive) | GI50 (HOP-92): > 100 µM (inactive) | GI50 (ACHN): > 100 µM (inactive) | GI50 (SR): > 100 µM (inactive) | GI50 (LOX IMVI): > 100 µM (inactive) | GI50 (OVCAR-3): > 100 µM (inactive) | GI50 (IGROV-1): > 100 µM (inactive) | GI50 (NCI-H23): > 100 µM (inactive) | GI50 (RPMI-8226): > 100 µM (inactive) | GI50 (SW-620): > 100 µM (inactive) | GI50 (TK-10): > 100 µM (inactive) | GI50 (SF-268): > 100 µM (inactive) | GI50 (M19-MEL): > 100 µM (inactive) | GI50 (LXFL 529): > 100 µM (inactive) | GI50 (MOLT-4): > 100 µM (inactive) | GI50 (SK-MEL-5): > 100 µM (inactive) | GI50 (SNB-19): > 100 µM (inactive) | GI50 (OVCAR-8): > 100 µM (inactive) | GI50 (K562): > 100 µM (inactive) | GI50 (HCC 2998): > 100 µM (inactive) | GI50 (HCT-116): > 100 µM (inactive) | GI50 (A549): > 100 µM (inactive) | GI50 (HOP-18): > 100 µM (inactive) | GI50 (CCRF-CEM): > 100 µM (inactive) | GI50 (HL-60): > 100 µM (inactive) | GI50 (XF498): > 100 µM (inactive) | GI50 (OVCAR-5): > 100 µM (inactive) | GI50 (DLD-1): > 100 µM (inactive) | GI50 (SF-539): > 100 µM (inactive) | GI50 (NCI-H522): > 100 µM (inactive) | GI50 (M14): > 100 µM (inactive) | GI50 (UACC-62): > 100 µM (inactive) | GI50 (OVCAR-4): > 100 µM (inactive) | GI50 (SF-295): > 100 µM (inactive) | GI50 (NCI-H226): > 100 µM (inactive) | GI50 (SNB-75): > 100 µM (inactive) | GI50 (KM12): > 100 µM (inactive) | GI50 (SN12C): > 100 µM (inactive) | GI50 (786-0): > 100 µM (inactive) | GI50 (NCI-H460): > 100 µM (inactive) | GI50 (SK-MEL-28): > 100 µM (inactive) | GI50 (DMS-114): > 100 µM (inactive) | GI50 (SK-MEL-2): > 100 µM (inactive) | GI50 (SNB-78): > 100 µM (inactive) | GI50 (HT-29): > 100 µM (inactive) | GI50 (CAKI-1): > 100 µM (inactive) | GI50 (UO-31): > 100 µM (inactive)
